Holding throughout (type): functional
The nature of test [1]: (§1) Antibacterial activity against Acinetobacter calcoaceticus/baumannii complex isolate C1AC9-24 expressing KPC beta lactamase.
Test [2] is described as follows: (§2) Antibacterial activity against Acinetobacter calcoaceticus/baumannii complex isolate M2AC9-31 expressing KPC beta lactamase.
The nature of test [3]: (§3) Antibacterial activity against Acinetobacter calcoaceticus/baumannii complex isolate M3AC9-2 expressing KPC beta lactamase.
The nature of test [4]: (§4) Antibacterial activity against Acinetobacter calcoaceticus/baumannii complex isolate M3AC9-4 expressing KPC beta lactamase.
Test [5] is described as follows: (§5) Antibacterial activity against Acinetobacter calcoaceticus/baumannii complex isolate M3AC9-6 expressing KPC beta lactamase.
The nature of test [6]: (§6) Antibacterial activity against Acinetobacter calcoaceticus/baumannii complex isolate M3AC9-7 expressing KPC beta lactamase.
Test [7] can be described thus: (§7) Antibacterial activity against Acinetobacter calcoaceticus/baumannii complex isolate MC1AC9-26 expressing KPC beta lactamase.
Test [8] is described as follows: (§8) Antibacterial activity against Acinetobacter calcoaceticus/baumannii complex isolate MC4AC9-30 expressing KPC beta lactamase.
Test [9] can be described thus: (§9) Antibacterial activity against Acinetobacter calcoaceticus/baumannii complex isolate N2AC9-18 expressing KPC beta lactamase.
Test [10] can be described thus: (§10) Antibacterial activity against Acinetobacter calcoaceticus/baumannii complex isolate N2AC9-19 expressing KPC beta lactamase.
Test [11] can be described thus: (§11) Antibacterial activity against Acinetobacter calcoaceticus/baumannii complex isolate W2AC8-S10 expressing OXA-51.
The next test deals with Escherichia coli. Nature of the test: Antibacterial activity against Escherichia coli ATCC 25922 […].
A further test has as its system Pseudomonas aeruginosa. Nature of the test: Antibacterial activity against Pseudomonas aeruginosa ATCC 27853 […].
For test [12], the system named is Acinetobacter calcoaceticus/baumannii complex. Described as §1.
For test [13] the test system is unchanged. The test is described as §2.
For test [14] the test system is unchanged. Described as §3.
Test [15] has the same test system. The test is described as §4.
Test [16] shares this test system. The test is described as §5.
For test [17] the test system is unchanged. The test is described as §6.
Test [18] has the same test system. Described as §7.
Test [19] shares this test system. The description is as §8.
Test [20] shares this test system. Described as §9.
Test [21] shares this test system. The description is as §10.
The test system is the same in test [22]. The description is as §11.

Values after ≈ are worked out from the molar mass of the structure shown.

In general, MIC refers to the lowest concentration found to suppress growth. With `CO/N=C(\C(=O)N[C@@H]1C(=O)N2C(C(=O)[O-])=C(C[N+]3(C)CCCC3)CS[C@H]12)c1csc(N)n1`, the MIC in test [1], in test [2], in [3], in test [4], in [5] and in [6] was > 16 µg/mL each time. Also, the MIC was > 16 µg/mL in test [7]; > 16 µg/mL in [8]; > 16 µg/mL in test [9]; > 16 µg/mL in test [10]; 2 µg/mL (≈ 4.16 µM) in test [11]; 2 µg/mL (≈ 4.16 µM) in the test with Escherichia coli. The MIC with Pseudomonas aeruginosa is < 2 µg/mL.
Turning to `NCC[C@H](O)C(=O)N[C@@H]1C[C@H](N)[C@@H](O[C@H]2O[C@H](CN)[C@@H](O)[C@H](O)[C@H]2O)[C@H](O)[C@H]1O[C@H]1O[C@H](CO)[C@@H](O)[C@H](N)[C@H]1O` [AMIKACIN], the MIC in test [1], in test [2], in test [3], in test [4], in test [5] and in test [6] was > 32 µg/mL in each case. For the same compound, the MIC is > 32 µg/mL in [7]; > 32 µg/mL in test [8]; > 32 µg/mL in test [9]; > 32 µg/mL in [10]; 4 µg/mL (≈ 6.83 µM) in test [11]; 4 µg/mL (≈ 6.83 µM) against Escherichia coli. Besides, the minimal inhibitory concentration (MIC) with Pseudomonas aeruginosa was < 4 µg/mL.
Take `CO/N=C(\C(=O)N[C@@H]1C(=O)N2C(C(=O)O)=C(COC(C)=O)CS[C@H]12)c1csc(N)n1` [CEFOTAXIME]: the MIC in test [1], in test [2], in test [3], in test [4], in test [5] and in [6] was > 32 µg/mL in each case. Further, the MIC in test [7] was > 32 µg/mL; in test [8] it was > 32 µg/mL; in [9], > 32 µg/mL; in [10], > 32 µg/mL; in test [11], 4 µg/mL (≈ 8.78 µM); with Escherichia coli, 1 µg/mL (≈ 2.2 µM). In addition, it took 16 µg/mL (≈ 35.1 µM) to inhibit growth with Pseudomonas aeruginosa (MIC).
For `CC(C)(O/N=C(\C(=O)N[C@@H]1C(=O)N2C(C(=O)[O-])=C(C[n+]3ccccc3)CS[C@H]12)c1csc(N)n1)C(=O)O` [CEFTAZIDIME], the minimum inhibitory concentration (MIC) in [1], in test [2], in test [3], in test [4], in test [5] and in test [6] was > 16 µg/mL throughout. Further, the MIC was > 16 µg/mL in test [7]; > 16 µg/mL in test [8]; > 16 µg/mL in [9]; > 16 µg/mL in test [10]; 2 µg/mL (≈ 3.66 µM) in test [11]; 1 µg/mL (≈ 1.83 µM) with Escherichia coli. For the same compound, the MIC against Pseudomonas aeruginosa is 2 µg/mL (≈ 3.66 µM).
For `O=C(O)c1cn(C2CC2)c2cc(N3CCNCC3)c(F)cc2c1=O` [CIPROFLOXACIN], in test [11], the MIC is 0.25 µg/mL (≈ 0.754 µM).
As to `C[C@@H](O)[C@H]1C(=O)N2C(C(=O)O)=C(S[C@@H]3CN[C@H](CNS(N)(=O)=O)C3)[C@H](C)[C@H]12` [DORIPENEM], the MIC in [1], in test [2], in [3], in [4], in test [5] and in test [6] was > 2 µg/mL each time. The MIC in test [7] was > 2 µg/mL; in test [8] it was > 2 µg/mL; in test [9] it was > 2 µg/mL; in [10] it was > 2 µg/mL; in test [11] it was 0.12 µg/mL (≈ 0.285 µM); in the test on Escherichia coli it was 0.12 µg/mL (≈ 0.285 µM). Also, the lowest concentration to inhibit growth against Pseudomonas aeruginosa (MIC) was 0.5 µg/mL (≈ 1.19 µM).
In the case of `C[C@@H](O)[C@H]1C(=O)N2C(C(=O)O)=C(SCCNC=N)C[C@H]12` [IMIPENEM ANHYDROUS], the minimal inhibitory concentration (MIC) in test [1] was 4 µg/mL (≈ 13.4 µM); in [2], 8 µg/mL (≈ 26.7 µM); in test [3] it was > 8 µg/mL; in [4], > 8 µg/mL; in [5], > 8 µg/mL; in test [6], > 8 µg/mL. Besides, the MIC in test [7] was 8 µg/mL (≈ 26.7 µM); in [8] it was 8 µg/mL (≈ 26.7 µM); in test [9] it was > 8 µg/mL; in test [10] it was > 8 µg/mL; in test [11], 1 µg/mL (≈ 3.34 µM); in the test on Escherichia coli it was 1 µg/mL (≈ 3.34 µM). In the test with Pseudomonas aeruginosa, this compound displayed an MIC of 2 µg/mL (≈ 6.68 µM).
For `C[C@H]1COc2c(N3CCN(C)CC3)c(F)cc3c(=O)c(C(=O)O)cn1c23.C[C@H]1COc2c(N3CCN(C)CC3)c(F)cc3c(=O)c(C(=O)O)cn1c23.O` [LEVOFLOXACIN], the MIC in test [1], in [2], in [3], in test [4], in test [5] and in test [6] was > 8 µg/mL throughout. Also, the MIC in test [7] is > 8 µg/mL; in test [8] it was > 8 µg/mL; in test [9] it was > 8 µg/mL; in [10], > 8 µg/mL; in test [11], 1 µg/mL; against Pseudomonas aeruginosa, < 1 µg/mL.
On to `C[C@@H](O)[C@H]1C(=O)N2C(C(=O)O)=C(S[C@@H]3CN[C@H](C(=O)N(C)C)C3)[C@H](C)[C@H]12` [MEROPENEM], for which the MIC in test [1] was 4 µg/mL (≈ 10.4 µM); in test [2] it was > 8 µg/mL; in test [3] it was > 8 µg/mL; in test [4], > 8 µg/mL; in [5], > 8 µg/mL; in test [6], > 8 µg/mL. Besides, the minimal inhibitory concentration (MIC) in test [7] was > 8 µg/mL; in test [8] it was > 8 µg/mL; in test [9], > 8 µg/mL; in test [10], > 8 µg/mL; in test [11], 1 µg/mL (≈ 2.61 µM); in the test on Escherichia coli, 1 µg/mL (≈ 2.61 µM). Moreover, in the test on Pseudomonas aeruginosa, the MIC is < 1 µg/mL.
In the case of `CN(C)c1ccc(O)c2c1C[C@H]1C[C@H]3[C@H](N(C)C)C(O)=C(C(N)=O)C(=O)[C@@]3(O)C(O)=C1C2=O` [MINOCYCLINE], the MIC is 8 µg/mL (≈ 17.5 µM) in test [1]; < 2 µg/mL in test [2]; < 2 µg/mL in [3]; 4 µg/mL (≈ 8.74 µM) in test [4]; < 2 µg/mL in test [5]; < 2 µg/mL in test [6]. Besides, the MIC was < 2 µg/mL in test [7]; 4 µg/mL (≈ 8.74 µM) in [8]; < 2 µg/mL in test [9]; < 2 µg/mL in [10]; 2 µg/mL (≈ 4.37 µM) in [11]; 2 µg/mL (≈ 4.37 µM) with Escherichia coli. It took 16 µg/mL (≈ 35 µM) to inhibit growth with Pseudomonas aeruginosa (MIC).
On to `CN(C)c1cc(NC(=O)CNC(C)(C)C)c(O)c2c1C[C@H]1C[C@H]3[C@H](N(C)C)C(O)=C(C(N)=O)C(=O)[C@@]3(O)C(O)=C1C2=O` [TIGECYCLINE], for which the MIC in test [1] was 1 µg/mL (≈ 1.71 µM); in test [2], 1 µg/mL (≈ 1.71 µM); in test [3] it was 0.5 µg/mL (≈ 0.854 µM); in test [4] it was 0.25 µg/mL (≈ 0.427 µM); in test [5], 0.5 µg/mL (≈ 0.854 µM); in [6], 0.5 µg/mL (≈ 0.854 µM). For the same compound, the MIC in [7] is 2 µg/mL (≈ 3.41 µM); in test [8], 0.5 µg/mL (≈ 0.854 µM); in [9], 1 µg/mL (≈ 1.71 µM); in test [10] it was 2 µg/mL (≈ 3.41 µM); in test [11], < 0.25 µg/mL; with Escherichia coli, 0.25 µg/mL (≈ 0.427 µM). In addition, it took 8 µg/mL (≈ 13.7 µM) to inhibit growth against Pseudomonas aeruginosa (MIC).
Regarding COLISTIN, the MIC is 1 µg/mL in test [12]; 0.5 µg/mL in test [13]; 0.5 µg/mL in test [14]; 1 µg/mL in test [15]; 1 µg/mL in [16]; 1 µg/mL in [17]. For the same compound, the MIC in test [18] was 0.5 µg/mL; in test [19], 0.5 µg/mL; in test [20], 0.5 µg/mL; in [21], 0.5 µg/mL; in test [22], 0.25 µg/mL; with Escherichia coli it was 0.25 µg/mL. Further, in the test with Pseudomonas aeruginosa, the MIC amounted to 1 µg/mL.
With GENTAMICIN, the MIC in test [12] is > 8 µg/mL; in test [13], > 8 µg/mL; in test [14] it was 2 µg/mL; in test [15] it was > 8 µg/mL; in test [16] it was 2 µg/mL; in [17], < 1 µg/mL. Also, the minimal inhibitory concentration (MIC) in test [18] was 8 µg/mL; in test [19], > 8 µg/mL; in [20] it was > 8 µg/mL; in [21], > 8 µg/mL; in [22], 1 µg/mL; against Escherichia coli, 1 µg/mL. Also, the MIC against Pseudomonas aeruginosa was < 1 µg/mL.
As for POLYMYXIN B, the MIC in test [12] is 0.5 µg/mL; in [13], < 0.25 µg/mL; in [14], < 0.25 µg/mL; in test [15], < 0.25 µg/mL; in test [16] it was 0.5 µg/mL; in [17] it was 0.5 µg/mL. For the same compound, the MIC in test [18] is < 0.25 µg/mL; in [19], 0.5 µg/mL; in [20], < 0.25 µg/mL; in test [21], < 0.25 µg/mL; in test [22], 0.5 µg/mL; with Escherichia coli, 0.25 µg/mL. In the test with Pseudomonas aeruginosa, this compound had an MIC of 1 µg/mL.

Values taken from ChEMBL document CHEMBL1240385, “Detection of KPC in Acinetobacter spp. in Puerto Rico” (2010).
